# Laboratory results: US7943296B2, “Methods of screening using a natriuretic peptide receptor” (Oregon Health & Science University, priority 2005, dated 2011)
# Legend:
# NPRA [1] = assay: [35S]ATPγS incorporation into NPRA (receptor phosphorylation) in CFs; format: cell-based, rat; conditions: ANP 5 minutes, KT5823 1 μM or expressed fragment
# Description: To identify receptor phosphorylation by PKG, ^[35S]ATPγS was employed as a substrate. [^35S] incorporation into NPRA was analyzed according to the method previously described (Joubert et al., Biochem. 40:11096-105, 2001). Briefly, the treated CFs were scraped into 100 μl ice-cold incubation buffer (25 mM HEPES, pH 7.4, 50 mM NaCl, 5 mM MgCl2, 0.2 μM okadaic acid, 1 mM Na3VO4, 10 mM NaH2PO4, 10 mM NaF, and protease inhibitors (complete mini-tablet, Roche) and lysed by repeated passage through a 22-gauge needle. Lysates were added to incubation buffer containing 1 μCi [^35S]ATPγS (specific activity >1000 Ci/mmol), final volume of 200 μl, incubated at 37° C. for 30 minutes. Proteins were analyzed by SDS-PAGE (7.5%) and subsequent autoradiography.
# NPRA [2] = assay: [35S]ATPγS NPRA phosphorylation in HEK293 / HEK-NPRA cells; format: cell-based; conditions: HEK293 that overexpress NPRA
# Description: To ensure that the 137-kD phosphorylation band observed in the CFs after ANP treatment was, in fact, NPRA, HEK293 or HEK-NPRA were treated with ANP with or without KT5823 as described above. The lysates were divided into two aliquots. One aliquot was incubated with [^35S] ATPγS and then separated by SDS-PAGE, blotted to Immobilon membranes, and visualized by autoradiography. The other aliquot was separated similarly and then probed with anti-NPRA antisera, stripped and re-probed with anti-α-tubulin to assure equal protein loading. Robust phosphorylation of a 137-kD protein occurred in the NPRA-expressing cells, but not in control cells (FIG. 6B). Since both KT5823 and sNRF^(806-1061) inhibit cytosolic-to-plasma membrane translocation of PKG, PKG-NPRA association appears to be required for PKG-induced NPRA phosphorylation.
# PKG = biological target: T1, PKG (Homo sapiens, UniProt Q13976); conditions: earlier observation, Airhart et al. 2003; cited from earlier work
# T1 construct: endogenous in cells; host or cells: HEK293 stably over-expressing FLAG-NPRA (HEK-NPRA)
# T1 sequence (Q13976 1-671): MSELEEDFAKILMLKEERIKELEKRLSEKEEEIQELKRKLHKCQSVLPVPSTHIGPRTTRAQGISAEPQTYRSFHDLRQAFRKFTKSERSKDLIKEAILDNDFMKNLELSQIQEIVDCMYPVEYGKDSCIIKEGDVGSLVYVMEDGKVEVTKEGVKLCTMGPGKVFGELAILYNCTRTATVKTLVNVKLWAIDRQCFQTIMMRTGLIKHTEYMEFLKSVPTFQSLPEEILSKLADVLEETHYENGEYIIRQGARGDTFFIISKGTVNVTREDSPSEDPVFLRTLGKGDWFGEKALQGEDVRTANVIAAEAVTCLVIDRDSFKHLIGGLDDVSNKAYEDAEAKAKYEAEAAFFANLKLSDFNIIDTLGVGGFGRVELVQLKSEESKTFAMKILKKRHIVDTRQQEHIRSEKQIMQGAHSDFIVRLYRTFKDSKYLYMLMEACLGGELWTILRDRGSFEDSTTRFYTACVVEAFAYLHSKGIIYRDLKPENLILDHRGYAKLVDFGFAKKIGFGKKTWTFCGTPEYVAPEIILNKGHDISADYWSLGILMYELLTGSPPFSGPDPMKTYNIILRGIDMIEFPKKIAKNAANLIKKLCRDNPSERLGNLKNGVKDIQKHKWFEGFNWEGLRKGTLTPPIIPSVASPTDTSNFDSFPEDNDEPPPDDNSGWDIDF
smiles,measurement,setting,value
COC(=O)[C@@]1(OC)C[C@H]2O[C@]1(C)n1c3ccccc3c3c4c(c5c6ccccc6n2c5c31)C(=O)N(C)C4 [KT5823],ANP-induced NPRA phosphorylation,NPRA [1],reduced ANP-induced NPRA phosphorylation to control levels
same,NP-dependent phosphorylation of NPRA,NPRA [2],inhibited
same,PKG translocation,PKG,inhibits PKG translocation
